Assay results taken from ChEMBL document CHEMBL1129819, “Polysubstituted 2H-pyran-2-ones: A new class of hepatoprotective agents” (1997).

Legend:
Type in all cases: functional
[1] = test system: Rattus norvegicus; assay: Percent protection against thioacetamide-induced toxicity in rats using glutamate pyruvate transaminase (GPT) when peroral administration of compound 6 mg/kg for 7 days; details: route oral
[2] = test system: Rattus norvegicus; assay: Percent protection against thioacetamide-induced toxicity in rats using glutamate dehydrogenase (GIDH) when peroral administration of compound 6 mg/kg for 7 days; details: route oral
[3] = organism: Rattus norvegicus; assay: Percent protection against thioacetamide-induced toxicity in rats using acid phosphatase(ACP); design: concentration or dose not given beside the values
[4] = test system: Rattus norvegicus; assay: Percent protection against thioacetamide-induced toxicity in rats using alkaline phosphatase (ALP) when peroral administration of compound 6 mg/kg for 7 days; details: route oral
[5] = test system: Rattus norvegicus; assay: Percent protection against thioacetamide-induced toxicity in rats using glutamate oxaloacetate transaminase (GOT) when peroral administration of compound 6 mg/kg for 7 days; details: route oral
[6] = test system: Rattus norvegicus; assay: Percent protection against thioacetamide-induced toxicity in rats using acid phosphatase(ACP) at peroral dose of 6 mg/kg for 7 days of compound; details: route oral
[7] = test system: Rattus norvegicus; assay: Percent protection in galactosamine-induced model using acid phosphatase(ACP)when peroral administration of compound 6 mg/kg for 7 days; details: route oral
[8] = test system: Rattus norvegicus; assay: Percent protection in galactosamine-induced model using alkaline phosphatase(ALP) when peroral administration of compound 6 mg/kg for 7 days; details: route oral
[9] = test system: Rattus norvegicus; assay: Percent protection in paracetamol-induced model using glutamate oxaloacetate transaminase(GOT) when peroral administration of compound 6 mg/kg for 7 days; details: route oral
[10] = test system: Rattus norvegicus; assay: Percent protection in galactosamine-induced model using glutamate dehydrogenase(GIDH) when peroral administration of compound 6 mg/kg for 7 days; details: route oral
[11] = test system: Rattus norvegicus; assay: Percent protection in alcohol-induced model using glutamate pyruvate transaminase(GPT) when peroral administration of compound 6 mg/kg for 7 days; details: route oral
[12] = test system: Rattus norvegicus; assay: Percent protection in alcohol-induced model using acid phosphatase(ACP) at peroral dose of 6 mg/kg for 7 days; details: route oral
[13] = test system: Rattus norvegicus; assay: Percent protection in alcohol-induced model using acid phosphatase(ACP) when peroral administration of compound 12 mg/kg for 7 days; details: route oral
[14] = test system: Rattus norvegicus; assay: Percent protection in carbon tetrachloride-induced model using glutamate oxaloacetate transaminase(GOT) when peroral administration of compound 6 mg/kg for 7 days; details: route oral
[15] = test system: Rattus norvegicus; assay: Percent protection in paracetamol-induced model using glutamate dehydrogenase(GIDH) when peroral administration of compound 6 mg/kg for 7 days; details: route oral
[16] = test system: Rattus norvegicus; assay: Percent protection in galactosamine-induced model using glutamate oxaloacetate transaminase(GOT) when peroral administration of compound 6 mg/kg for 7 days; details: route oral
[17] = test system: Rattus norvegicus; assay: Percent protection in paracetamol-induced model using alkaline phosphatase(ALP) at peroral dose of 6 mg/kg for 7 days; details: route oral
[18] = test system: Rattus norvegicus; assay: Percent protection in alcohol-induced model using alkaline phosphatase(ALP) when peroral administration of compound 6 mg/kg for 7 days; details: route oral
[19] = test system: Rattus norvegicus; assay: Percent protection in paracetamol-induced model using glutamate pyruvate transaminase(GPT) when peroral administration of compound 6 mg/kg for 7 days; details: route oral
[20] = test system: Rattus norvegicus; assay: Percent protection in alcohol-induced model using glutamate oxaloacetate transaminase(GOT) when peroral administration of compound 6 mg/kg for 7 days; details: route oral
[21] = test system: Rattus norvegicus; assay: Percent protection in galactosamine-induced model using glutamate pyruvate transaminase(GPT) when peroral administration of compound 6 mg/kg for 7 days; details: route oral
[22] = test system: Rattus norvegicus; assay: Percent protection in carbon tetrachloride-induced model using alkaline phosphatase(ALP) when peroral administration of compound 6 mg/kg for 7 days; details: route oral
[23] = test system: Rattus norvegicus; assay: Percent protection in paracetamol-induced model using acid phosphatase(ACP) when peroral administration of compound 6 mg/kg for 7 days; details: route oral
[24] = test system: Rattus norvegicus; assay: Percent protection in alcohol-induced model using glutamate oxaloacetate transaminase(GOT) when peroral administration of compound 12 mg/kg for 7 days; details: route oral
[25] = test system: Rattus norvegicus; assay: Percent protection in carbon tetrachloride-induced model using glutamate pyruvate transaminase(GPT) when peroral administration of compound 6 mg/kg for 7 days; details: route oral
[26] = test system: Rattus norvegicus; assay: Percent protection in alcohol-induced model using glutamate pyruvate transaminase(GPT) at peroral dose of 12 mg/kg for 7 days; details: route oral
[27] = test system: Rattus norvegicus; assay: Percent protection in alcohol-induced model using alkaline phosphatase(ALP) when peroral administration of compound 12 mg/kg for 7 days; details: route oral
[28] = test system: Rattus norvegicus; assay: Percent protection in carbon tetrachloride-induced model using glutamate dehydrogenase(GIDH) when peroral administration of compound 6 mg/kg for 7 days; details: route oral
[29] = test system: Rattus norvegicus; assay: Percent protection in alcohol-induced model using glutamate dehydrogenase(GIDH) when peroral administration of compound 6 mg/kg for 7 days; details: route oral
[30] = test system: Rattus norvegicus; assay: Percent protection in alcohol-induced model using glutamate dehydrogenase(GIDH) when peroral administration of compound 12 mg/kg for 7 days; details: route oral
[31] = test system: Rattus norvegicus; assay: Percent protection in carbon tetrachloride-induced model using acid phosphatase(ACP) when peroral administration of compound 6 mg/kg for 7 days; details: route oral

CSc1cc(-c2ccc(Cl)cc2Cl)oc(=O)c1C#N
Protection [1]: 45%
Protection [2]: 65%
Protection [3]: 61%
Protection [4]: 33%
Protection [5]: 37%

CSc1cc(-c2ccc(Cl)cc2)oc(=O)c1
Protection [1]: 51%
Protection [2]: 43%
Protection [4]: 42%
Protection [6]: 24%
Protection [5]: 46%

CSc1cc(-c2cccs2)oc(=O)c1C#N
Protection [1]: 74%
Protection [2]: 100%
Protection [3]: 10%
Protection [4]: 33%
Protection [5]: 37%

CSc1cc(-c2ccc(F)cc2)oc(=O)c1C#N
Protection [1]: 31%
Protection [2]: 0%
Protection [3]: 46%
Protection [4]: 15%
Protection [5]: 20%

CSc1cc(-c2ccncc2)oc(=O)c1C#N
Protection [1]: 0%
Protection [2]: 0%
Protection [4]: 12%
Protection [6]: 0%
Protection [5]: 0%

CSc1cc(-c2cccnc2)oc(=O)c1C#N
Protection [1]: 12%
Protection [2]: 51%
Protection [3]: 38%
Protection [4]: 0%
Protection [5]: 12%

CCOC(=O)c1c(SC)c(C#N)c(-c2ccc(Br)cc2)oc1=O
Protection [1]: 0%
Protection [2]: 2%
Protection [3]: 2%
Protection [4]: 0%
Protection [5]: 0%

CSc1cc(-c2ccc(F)cc2)oc(=O)c1
Protection [1]: 57%
Protection [2]: 15%
Protection [3]: 46%
Protection [4]: 30%
Protection [5]: 59%

CSc1cc(-c2ccc(Br)cc2)oc(=O)c1Cl
Protection [1]: 40%
Protection [2]: 26%
Protection [4]: 19%
Protection [6]: 30%
Protection [5]: 30%

CSc1cc(-c2ccc(Cl)cc2)oc(=O)c1C#N
Protection [7]: 66%
Protection [8]: 68%
Protection [9]: 73%
Protection [10]: 57%
Protection [11]: 48%
Protection [12]: 53%
Protection [1]: 69%
Protection [13]: 74%
Protection [2]: 51%
Protection [14]: 59%
Protection [15]: 54%
Protection [16]: 86%
Protection [17]: 73%
Protection [18]: 24%
Protection [19]: 81%
Protection [3]: 59%
Protection [20]: 34%
Protection [21]: 76%
Protection [22]: 57%
Protection [4]: 65%
Protection [23]: 90%
Protection [24]: 58%
Protection [25]: 67%
Protection [26]: 69%
Protection [27]: 56%
Protection [28]: 58%
Protection [29]: 40%
Protection [30]: 62%
Protection [31]: 70%
Protection [5]: 68%

CSc1cc(-c2ccc(Cl)cc2)oc(=O)c1Br
Protection [1]: 80%
Protection [2]: 51%
Protection [3]: 48%
Protection [4]: 100%
Protection [5]: 70%

CSc1cc(-c2ccc(Br)cc2)oc(=O)c1Br
Protection [1]: 18%
Protection [2]: 28%
Protection [3]: 72%
Protection [4]: 15%
Protection [5]: 47%

COc1cc([C@H]2Oc3cc([C@H]4Oc5cc(O)cc(O)c5C(=O)[C@@H]4O)ccc3O[C@@H]2CO)ccc1O [SILYBIN A]
Protection [8]: 33%
Protection [9]: 46%
Protection [10]: 65%
Protection [11]: 59%
Protection [12]: 49%
Protection [1]: 47.25%
Protection [13]: 64%
Protection [2]: 38.81%
Protection [14]: 48%
Protection [15]: 60%
Protection [16]: 47%
Protection [17]: 50%
Protection [18]: 62%
Protection [19]: 49%
Protection [3]: 61%
Protection [20]: 43%
Protection [21]: 45%
Protection [22]: 51%
Protection [4]: 47%
Protection [23]: 67%
Protection [24]: 62%
Protection [25]: 64%
Protection [6]: 43.25%
Protection [26]: 78%
Protection [27]: 77%
Protection [28]: 51%
Protection [29]: 49%
Protection [30]: 59%
Protection [31]: 57%
Protection [5]: 50.14%

CSc1cc(-c2ccco2)oc(=O)c1C#N
Protection [1]: 72%
Protection [2]: 15%
Protection [3]: 0%
Protection [4]: 19%
Protection [5]: 71%

CSc1cc(-c2ccc(Cl)cc2)oc(=S)c1Cl
Protection [1]: 26%
Protection [2]: 12%
Protection [3]: 25%
Protection [4]: 10%
Protection [5]: 29%

CCOC(=O)c1c(SC)c(C#N)c(-c2ccc(Cl)cc2)oc1=O
Protection [1]: 19%
Protection [2]: 16%
Protection [3]: 30%
Protection [4]: 0%
Protection [5]: 14%

CSc1cc(-c2cccs2)oc(=O)c1Br
Protection [1]: 55%
Protection [2]: 4%
Protection [3]: 25%
Protection [4]: 37%
Protection [5]: 50%

CCOC(=O)c1c(SC)cc(-c2ccc(Cl)cc2)oc1=O
Protection [1]: 31%
Protection [2]: 17%
Protection [4]: 11%
Protection [6]: 0%
Protection [5]: 23%

CSc1cc(-c2ccc(F)cc2)oc(=O)c1Br
Protection [1]: 0%
Protection [2]: 0%
Protection [4]: 43%
Protection [6]: 49%
Protection [5]: 0%

CSc1cc(-c2ccncc2)oc(=O)c1Br
Protection [1]: 0%
Protection [2]: 16%
Protection [3]: 53%
Protection [4]: 12%
Protection [5]: 48%

CSc1cc(-c2ccc(Cl)cc2)oc(=O)c1C(N)=O
Protection [1]: 15%
Protection [2]: 0%
Protection [3]: 10%
Protection [4]: 17%
Protection [5]: 16%

CSc1cc(-c2ccc(Cl)cc2)oc(=S)c1Br
Protection [1]: 0%
Protection [2]: 20%
Protection [3]: 0%
Protection [4]: 36%
Protection [5]: 25%

CSc1cc(-c2ccc(Br)cc2)oc(=O)c1C#N
Protection [1]: 10%
Protection [2]: 40%
Protection [3]: 38%
Protection [4]: 56%
Protection [5]: 20%

CSc1cc(-c2ccc(Cl)cc2)oc(=O)c1Cl
Protection [1]: 51%
Protection [2]: 27%
Protection [4]: 40%
Protection [6]: 38%
Protection [5]: 36%
